In patent US20100298141A1, “SUBSTITUTED PYRIDINE N-OXIDE HERBICIDES” (E. I. DU PONT DE NEMOURS AND COMPANY, priority 2007, published 2010):

Legend:
Italian ryegrass = test: Test C pre-/postemergence test; format: in vivo, Lolium multiflorum; conditions: for Ryegrass, Italian plant response rating: preemergence, scale 0 (no effect) to 100 (complete control); for Plant response rating, Ryegrass, Italian: scale 0 to 100, 0 no effect, 100 complete control
Summary of the method: (§1)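 Compounds in a non-phytotoxic solvent with surfactant applied preemergence to seeded pots and, at the same time, postemergence to plants 2–18 cm tall (1- to 4-leaf stage). Paddy tests: pots flooded to 3 cm, compound applied into the water, depth held throughout.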

green foxtail = test: Test C pre-/postemergence test; format: in vivo, Setaria viridis; conditions: for Plant response rating, Foxtail, Green: scale 0 to 100, 0 no effect, 100 complete control
Summary of the method: as §1

purple nutsedge = test: Test F preemergence test; format: in vivo, Cyperus rotundus; conditions: scale 0 to 100
Summary of the method: (§2)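 Compounds in a non-phytotoxic solvent formulation with surfactant were applied before emergence after sowing, or, for sugarcane, also postemergence. Evaluation was visual, against controls, after 14 to 21 greenhouse days.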

johnsongrass = test: Test F preemergence test; format: in vivo, Sorghum halepense; conditions: Preemergence, scale 0 to 100
Summary of the method: as §2

goosegrass = test: Test F preemergence test; format: in vivo, Eleusine indica; conditions: scale 0 to 100
Summary of the method: as §2

velvetleaf = test: Test A pre-/postemergence greenhouse test; format: in vivo, Abutilon theophrasti; conditions: for Velvetleaf plant response rating: 0 to 100 scale
Summary of the method: (§3)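 Visual injury ratings, made relative to untreated controls roughly ten days after treatment, cover both preemergence and postemergence application. Compounds in a surfactant-containing non-phytotoxic solvent were sprayed onto the soil surface after sowing and, simultaneously, onto young plants at the one- to two-leaf stage.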

dallisgrass = test: Test F preemergence test; format: in vivo, Paspalum dilatatum; conditions: scale 0 to 100
Summary of the method: as §2

barnyardgrass = test: Test A pre-/postemergence greenhouse test; format: in vivo, Echinochloa crus-galli; conditions: for Barnyardgrass plant response rating: 0 to 100 scale
Summary of the method: as §3

broadleaf signalgrass = test: Test F preemergence test; format: in vivo, Brachiaria platyphylla; conditions: scale 0 to 100
Summary of the method: as §2

itchgrass = test: Test F preemergence test; format: in vivo, Rottboellia cochinchinensis; conditions: scale 0 to 100
Summary of the method: as §2

Virginia dayflower = test: Test F preemergence test; format: in vivo, Commelina virginica; conditions: scale 0 to 100
Source text: (§4) Seeds of plant species selected from bermudagrass (Cynodon dactylon), Surinam grass (Brachiaria decumbens), large crabgrass (Digitaria sanguinalis), green foxtail (Setaria viridis), goosegrass (Eleusine indica), johnsongrass (Sorghum halepense), kochia (Kochia scoparia), pitted morningglory (Ipomoea lacunosa), purple nutsedge (Cyperus rotundus), common ragweed (Ambrosia elation), mustard (Brassica nigra), guineagrass (Panicum maximum), […] (Paspalum dilatatum), barnyardgrass (Echinochloa crus-galli), southern sandbur (Cenchrus echinatus), common sowthistle (Sonchus oleraceous), prickly […] spinosa), Italian ryegrass (Lolium multiflorum), common purslane (Portulaca oleracea), broadleaf signalgrass (Brachiaria platyphylla), common groundsel (Senecio vulgaris), common chickweed (Stellaria media), Virginia dayflower (Commelina virginica), annual bluegrass (Poa annua), naked crabgrass (Digitaria nuda), […] cochinchinensis), quackgrass (Elytrigia repens), Canada horseweed (Conyza canadensis), field bindweed (Convolvulus arvensis), […] (Bidens bipinnata), common mallow (Malva sylvestris), Russian thistle (Salsola kali), and sugarcane (Saccharum officinarum) were planted and treated preemergence with test chemicals formulated in a non-phytotoxic solvent mixture which included a surfactant. At a different time, sugarcane was treated with postemergence applications of some of the test chemicals formulated in the same manner. Plants were approximately 3- to 4-leaf stage for the postemergence treatments. Treated plants and controls were maintained in a greenhouse for 14 to 21 days, after which time all species were compared to controls and visually evaluated. […] A dash (-) response means no test result.

kochia = test: Test F preemergence test; format: in vivo, Kochia scoparia; conditions: scale 0 to 100
Summary of the method: as §2

common groundsel = test: Test F preemergence test; format: in vivo, Senecio vulgaris; conditions: scale 0 to 100
Source text: as §4

[1] = Postemergence, 125 g ai/ha, 0 is no effect, 100 is complete control
[2] = Postemergence, 500 g ai/ha, 0 is no effect, 100 is complete control
[3] = Preemergence, 125 g ai/ha, 0 no effect, 100 complete control
[4] = Preemergence, 500 g ai/ha, 0 to 100 scale where 0 is no effect and 100 is complete control

Cc1cc[n+]([O-])c(S(=O)(=O)Cc2c(C(F)(F)F)nn(C)c2OC(F)F)c1 [Compound 2]
Ryegrass, Italian plant response rating (Italian ryegrass; 62 g ai/ha): 50 | Plant response rating (0 to 100), Ryegrass, Italian (Italian ryegrass; Postemergence, 31 g ai/ha): 0 | Plant response rating (0 to 100), Ryegrass, Italian (Italian ryegrass; Postemergence, 62 g ai/ha): 0 | Plant response rating, Ryegrass, Italian (Italian ryegrass; Postemergence, 125 g ai/ha): 0 | Plant response rating, Ryegrass, Italian (Italian ryegrass; Postemergence, 250 g ai/ha): 0 | Plant response rating (0 to 100), Ryegrass, Italian (Italian ryegrass; Preemergence, 250 g ai/ha): 100 | Ryegrass, Italian plant response rating (Italian ryegrass; 125 g ai/ha): 50 | Foxtail, Green plant response rating (green foxtail; 31 g ai/ha, Preemergence, scale 0 to 100): 100 | Foxtail, Green plant response rating (green foxtail; 62 g ai/ha, preemergence, scale 0 (no effect) to 100 (complete control)): 100 | Plant response rating (0 to 100), Foxtail, Green (green foxtail; Postemergence, 31 g ai/ha): 0 | Plant response rating, Foxtail, Green (green foxtail; Postemergence, 62 g ai/ha): 0 | Plant response rating, Foxtail, Green (green foxtail; Postemergence, 125 g ai/ha): 20 | Plant response rating, Foxtail, Green (green foxtail; Postemergence, 250 g ai/ha): 50 | Plant response rating (0 to 100), Foxtail, Green (green foxtail; Preemergence, 250 g ai/ha): 100 | Foxtail, Green plant response rating (green foxtail; preemergence, 125 g ai/ha, scale 0 (no effect) to 100 (complete control)): 100 | Plant response rating, Purple Nutsedge (purple nutsedge; 8 g ai/ha, preemergence): 0 | Purple Nutsedge plant response rating (purple nutsedge; 62 g ai/ha, Preemergence): 100 | Plant response rating, Purple Nutsedge (purple nutsedge; Preemergence, 16 g ai/ha): 15 | Plant response rating, Purple Nutsedge (purple nutsedge; Preemergence, 31 g ai/ha): 70 | Johnsongrass plant response rating (johnsongrass; 62 g ai/ha): 85 | Plant response rating, Johnsongrass (johnsongrass; 31 g ai/ha): 70 | Plant response rating, Goosegrass (goosegrass; 8 g ai/ha, preemergence): 35 | Goosegrass plant response rating (goosegrass; 62 g ai/ha, Preemergence): 98 | Plant response rating, Goosegrass (goosegrass; Preemergence, 16 g ai/ha): 70 | Plant response rating, Goosegrass (goosegrass; Preemergence, 31 g ai/ha): 90 | Velvetleaf plant response rating (velvetleaf; [1]): 60 | Velvetleaf plant response rating (velvetleaf; [2]): 80 | Velvetleaf plant response rating (velvetleaf; [3]): 70 | Plant response rating, Velvetleaf (velvetleaf; [4]): 90 | Plant response rating, Dallisgrass (dallisgrass; 8 g ai/ha, preemergence): 0 | Dallisgrass plant response rating (dallisgrass; 62 g ai/ha, Preemergence): 65 | Plant response rating, Dallisgrass (dallisgrass; Preemergence, 16 g ai/ha): 0 | Plant response rating, Dallisgrass (dallisgrass; Preemergence, 31 g ai/ha): 10 | Barnyardgrass plant response rating (barnyardgrass; [1]): 70 | Barnyardgrass plant response rating (barnyardgrass; [2]): 80 | Barnyardgrass plant response rating (barnyardgrass; [3]): 90 | Plant response rating, Barnyardgrass (barnyardgrass; [4]): 100 | Plant response rating, Signalgrass (broadleaf signalgrass; 8 g ai/ha, preemergence): 0 | Plant response rating, Signalgrass (broadleaf signalgrass; 16 g ai/ha, preemergence): 0 | Signalgrass plant response rating (broadleaf signalgrass; 62 g ai/ha, Preemergence): 50 | Plant response rating, Signalgrass (broadleaf signalgrass; Preemergence, 31 g ai/ha): 0 | Plant response rating, Itchgrass (itchgrass; 8 g ai/ha, preemergence): 0 | Itchgrass plant response rating (itchgrass; 62 g ai/ha, Preemergence): 70 | Plant response rating, Itchgrass (itchgrass; Preemergence, 16 g ai/ha): 20 | Plant response rating, Itchgrass (itchgrass; Preemergence, 31 g ai/ha): 60 | Plant response rating, Dayflower (Virginia dayflower; 8 g ai/ha, preemergence): 0 | Dayflower plant response rating (Virginia dayflower; 62 g ai/ha, Preemergence): 100 | Plant response rating, Dayflower (Virginia dayflower; Preemergence, 16 g ai/ha): 0 | Plant response rating, Dayflower (Virginia dayflower; Preemergence, 31 g ai/ha): 100 | Plant response rating, Kochia (kochia; 8 g ai/ha, preemergence): 0 | Kochia plant response rating (kochia; 62 g ai/ha, Preemergence): 75 | Plant response rating, Kochia (kochia; Preemergence, 16 g ai/ha): 0 | Plant response rating, Kochia (kochia; Preemergence, 31 g ai/ha): 0 | Plant response rating, Groundsel (common groundsel; 8 g ai/ha, preemergence): 0 | Groundsel plant response rating (common groundsel; 62 g ai/ha, Preemergence): 50 | Plant response rating, Groundsel (common groundsel; Preemergence, 16 g ai/ha): 0 | Plant response rating, Groundsel (common groundsel; Preemergence, 31 g ai/ha): 50
